The structures appear in SMILES notation.

Sequence of human F508del-CFTR (P13569 with tags, fused parts or gaps DEL508-508): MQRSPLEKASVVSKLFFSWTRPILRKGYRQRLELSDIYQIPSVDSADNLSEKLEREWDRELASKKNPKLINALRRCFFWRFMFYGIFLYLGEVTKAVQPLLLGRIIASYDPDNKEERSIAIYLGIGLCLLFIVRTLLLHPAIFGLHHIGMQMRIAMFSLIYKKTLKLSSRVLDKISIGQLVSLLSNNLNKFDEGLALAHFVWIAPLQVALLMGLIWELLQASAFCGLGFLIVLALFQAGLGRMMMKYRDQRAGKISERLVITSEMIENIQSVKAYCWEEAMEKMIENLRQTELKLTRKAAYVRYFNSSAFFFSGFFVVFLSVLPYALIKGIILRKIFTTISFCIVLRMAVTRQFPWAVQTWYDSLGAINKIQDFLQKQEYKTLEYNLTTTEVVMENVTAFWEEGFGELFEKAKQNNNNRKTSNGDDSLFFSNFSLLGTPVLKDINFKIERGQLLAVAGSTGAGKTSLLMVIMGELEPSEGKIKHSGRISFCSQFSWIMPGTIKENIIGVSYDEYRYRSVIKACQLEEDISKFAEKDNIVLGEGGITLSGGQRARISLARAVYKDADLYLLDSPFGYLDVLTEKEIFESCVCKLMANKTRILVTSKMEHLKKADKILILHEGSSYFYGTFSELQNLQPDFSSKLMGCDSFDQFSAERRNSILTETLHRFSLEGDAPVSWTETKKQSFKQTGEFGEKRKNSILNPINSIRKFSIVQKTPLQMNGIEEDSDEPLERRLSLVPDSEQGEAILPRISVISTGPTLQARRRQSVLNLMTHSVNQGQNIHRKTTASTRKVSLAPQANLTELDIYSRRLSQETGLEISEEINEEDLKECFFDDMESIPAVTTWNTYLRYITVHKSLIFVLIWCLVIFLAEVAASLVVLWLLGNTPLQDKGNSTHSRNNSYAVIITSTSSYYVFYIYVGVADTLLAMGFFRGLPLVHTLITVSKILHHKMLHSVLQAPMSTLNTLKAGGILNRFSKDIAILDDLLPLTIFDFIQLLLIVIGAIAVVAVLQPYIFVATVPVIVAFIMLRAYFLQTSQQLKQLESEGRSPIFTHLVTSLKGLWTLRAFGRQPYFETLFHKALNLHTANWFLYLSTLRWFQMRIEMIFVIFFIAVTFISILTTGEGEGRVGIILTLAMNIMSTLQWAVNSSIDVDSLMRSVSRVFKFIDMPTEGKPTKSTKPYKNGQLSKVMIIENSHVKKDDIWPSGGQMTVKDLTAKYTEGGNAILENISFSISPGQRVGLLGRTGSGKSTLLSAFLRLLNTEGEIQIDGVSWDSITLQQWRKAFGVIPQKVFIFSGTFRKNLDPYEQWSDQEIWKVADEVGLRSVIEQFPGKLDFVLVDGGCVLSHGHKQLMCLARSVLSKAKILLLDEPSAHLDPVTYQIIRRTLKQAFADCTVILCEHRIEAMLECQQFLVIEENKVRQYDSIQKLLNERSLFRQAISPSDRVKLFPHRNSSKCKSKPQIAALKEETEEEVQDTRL

One assay concerns the target human F508del-CFTR (Homo sapiens, UniProt P13569, DEL508-508). Nature of the assay: F508del-CFTR cell surface expression (corrector activity), DiscoveRx ß-galactosidase complementation chemiluminescence assay in recombinant U2OS cell line.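 Note: U2OS cells co-expressing ProLink-tagged F508del-CFTR and a membrane-anchored enzyme acceptor, where more surface CFTR restores β-galactosidase activity measured by chemiluminescence.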 The settings on record: EC50, F508del-CFTR cell surface expression, U2OS cell line, 16h compound incubation; geomean values.
For orientation: EC50 means the midpoint of the concentration-response curve. With `COc1cccc2c1C(=O)N[C@H](C(=O)NCCc1ccc3c(c1)CCCO3)CC(=O)N(C)[C@@H](CC(C)C)C(=O)N(CCC1CCCCC1)CC(=O)N[C@H](Cc1ccccc1)CO2` (mixture of isomers) [Example 11, (3R,9S,13RS)-3-benzyl-N-(2-(chroman-6-yl)ethyl)-7-(2-cyclohexylethyl)-9-isobutyl-16-methoxy-10-methyl-5,8,11,15-tetraoxo-2,3,4,5,6,7,8,9,10,11,12,13,14,15-tetradecahydrobenzo[p][1]oxa[4,7,10,14]tetraazacycloheptadecine-13-carboxamide], the EC50 turned out to be 182 nM.

With `COc1cccc2c1C(=O)N[C@H](C(=O)NCCc1ccc3c(c1)OCCCO3)CC(=O)N(C)[C@@H](CC(C)C)C(=O)N(CCC1CCCCC1)CC(=O)N[C@H](Cc1ccccc1)CO2` (mixture of isomers) [Example 12, (3R,9S,13RS)-3-benzyl-7-(2-cyclohexylethyl)-N-(2-(3,4-dihydro-2H-benzo[b][1,4]dioxepin-7-yl)ethyl)-9-isobutyl-16-methoxy-10-methyl-5,8,11,15-tetraoxo-2,3,4,5,6,7,8,9,10,11,12,13,14,15-tetradecahydrobenzo[p][1]oxa[4,7,10,14]tetraazacycloheptadecine-13-carboxamide], the EC50 came to 270 nM.

For `COc1cccc2c1C(=O)N[C@H](C(=O)NCCc1ccc3c(c1)OCC3)CC(=O)N(C)[C@@H](CC(C)C)C(=O)N(CCC1CCCCC1)CC(=O)N[C@H](Cc1ccccc1)CO2` (mixture of isomers) [Example 15, (3R,9S,13RS)-3-benzyl-7-(2-cyclohexylethyl)-N-(2-(2,3-dihydrobenzofuran-6-yl)ethyl)-9-isobutyl-16-methoxy-10-methyl-5,8,11,15-tetraoxo-2,3,4,5,6,7,8,9,10,11,12,13,14,15-tetradecahydrobenzo[p][1]oxa[4,7,10,14]tetraazacycloheptadecine-13-carboxamide], the EC50 is 187 nM.

Take `COc1cccc2c1C(=O)N[C@H](C(=O)NCCc1nc3ccccc3o1)CC(=O)N(C)[C@@H](CC(C)C)C(=O)N(CCC1CCCCC1)CC(=O)N[C@H](Cc1ccccc1)CO2` (mixture of isomers) [Example 16, (3R,9S,13RS)-N-(2-(benzo[d]oxazol-2-yl)ethyl)-3-benzyl-7-(2-cyclohexylethyl)-9-isobutyl-16-methoxy-10-methyl-5,8,11,15-tetraoxo-2,3,4,5,6,7,8,9,10,11,12,13,14,15-tetradecahydrobenzo[p][1]oxa[4,7,10,14]tetraazacycloheptadecine-13-carboxamide]: the EC50 is 269 nM.

For the molecule `Cc1csc(CCNC(=O)[C@@H]2CC(=O)N(C)[C@@H](CC(C)C)C(=O)N3CCCC[C@@H]3C(=O)N[C@H](Cc3ccccc3)COc3ccc4ncn(C)c4c3C(=O)N2)n1` (mixture of isomers) [Example 23, (8RS,12S,18aR,21R)-21-benzyl-12-isobutyl-5,11-dimethyl-N-(2-(4-methylthiazol-2-yl)ethyl)-6,10,13,19-tetraoxo-6,7,8,9,10,11,12,13,16,17,18,18a,19,20,21,22-hexadecahydro-5H,15H-imidazo[4′,5′:5,6]benzo[1,2-p]pyrido[2,1-f][1]oxa[4,7,10,14]tetraazacycloheptadecine-8-carboxamide], the EC50 came out at 991 nM.

Turning to `CC(C)C[C@H]1C(=O)N2CCCC[C@@H]2C(=O)N[C@H](Cc2ccccc2)COc2ccc3ncn(C)c3c2C(=O)N[C@H](C(=O)NCCc2cccc(-n3nccn3)c2)CC(=O)N1C` (mixture of isomers) [Example 28, (8RS,12S,18aR,21R)-N-(3-(2H-1,2,3-triazol-2-yl)phenethyl)-21-benzyl-12-isobutyl-5,11-dimethyl-6,10,13,19-tetraoxo-6,7,8,9,10,11,12,13,16,17,18,18a,19,20,21,22-hexadecahydro-5H,15H-imidazo[4′,5′:5,6]benzo[1,2-p]pyrido[2,1-f][1]oxa[4,7,10,14]tetraazacycloheptadecine-8-carboxamide], the EC50 turned out to be 603 nM.

In the case of `COc1cccc(CCNC(=O)[C@@H]2CC(=O)N(C)[C@@H](CC(C)C)C(=O)N(C)CC(=O)N[C@H](Cc3ccccc3)COc3cc4c(cc3C(=O)N2)OCO4)c1OC` (mixture of isomers) [Example 151, (7R,13S,17RS)-7-benzyl-N-(2,3-dimethoxyphenethyl)-13-isobutyl-11,14-dimethyl-9,12,15,19-tetraoxo-6,7,8,9,10,11,12,13,14,15,16,17,18,19-tetradecahydro-[1,3]dioxolo[4′,5′:4,5]benzo[1,2-p][1]oxa[4,7,10,14]tetraazacycloheptadecine-17-carboxamide], the EC50 amounted to 759 nM.

As to `COc1cc2c(cc1OC)C(=O)N[C@H](C(=O)NCCc1ccc3c(c1)CCO3)CC(=O)N(C)[C@@H](CC(C)C)C(=O)N(C)CC(=O)N[C@H](Cc1ccccc1)CO2` (mixture of isomers) [Example 152, (3R,9S,13RS)-3-benzyl-N-(2-(2,3-dihydrobenzofuran-5-yl)ethyl)-9-isobutyl-17,18-dimethoxy-7,10-dimethyl-5,8,11,15-tetraoxo-2,3,4,5,6,7,8,9,10,11,12,13,14,15-tetradecahydrobenzo[p][1]oxa[4,7,10,14]tetraazacycloheptadecine-13-carboxamide], the EC50 amounted to 668 nM.

Consider `COc1cc2c(cc1OC)C(=O)N[C@H](C(=O)NCCc1ccc3c(c1)OCO3)CC(=O)N(C)[C@@H](CC(C)C)C(=O)N(CCC(C)(C)OC)CC(=O)N[C@H](Cc1ccccc1)CO2` (mixture of isomers) [Example 156, (3R,9S,13RS)-N-(2-(benzo[d][1,3]dioxol-5-yl)ethyl)-3-benzyl-9-isobutyl-17,18-dimethoxy-7-(3-methoxy-3-methylbutyl)-10-methyl-5,8,11,15-tetraoxo-2,3,4,5,6,7,8,9,10,11,12,13,14,15-tetradecahydrobenzo[p][1]oxa[4,7,10,14]tetraazacycloheptadecine-13-carboxamide], for which the EC50 was 647 nM.

Take `CC(C)C[C@H]1C(=O)N(C[C@H]2CCCCO2)CC(=O)N[C@H](Cc2ccccc2)COc2ccc3ccccc3c2C(=O)N[C@H](C(=O)NCCc2ccc3c(c2)OCO3)CC(=O)N1C` (mixture of isomers) [Example 162, (3RS,7S,13R)-N-(2-(benzo[d][1,3]dioxol-5-yl)ethyl)-13-benzyl-7-isobutyl-6-methyl-1,5,8,11-tetraoxo-9-(((R)-tetrahydro-2H-pyran-2-yl)methyl)-1,2,3,4,5,6,7,8,9,10,11,12,13,14-tetradecahydronaphtho[1,2-p][1]oxa[4,7,10,14]tetraazacycloheptadecine-3-carboxamide]: the EC50 amounted to 472 nM.

For the molecule `COc1cccc(CCNC(=O)[C@@H]2CC(=O)N(C)[C@@H](CC(C)C)C(=O)N(C[C@H]3CCCCO3)CC(=O)N[C@H](Cc3ccccc3)COc3ccc4ccccc4c3C(=O)N2)c1` (mixture of isomers) [Example 164, (3RS,7S,13R)-13-benzyl-7-isobutyl-N-(3-methoxyphenethyl)-6-methyl-1,5,8,11-tetraoxo-9-(((R)-tetrahydro-2H-pyran-2-yl)methyl)-1,2,3,4,5,6,7,8,9,10,11,12,13,14-tetradecahydronaphtho[1,2-p][1]oxa[4,7,10,14]tetraazacycloheptadecine-3-carboxamide], the EC50 was found to be 519 nM.

With `COc1cccc2c1C(=O)N[C@H](C(=O)NCCc1ccc3c(c1)OCO3)CC(=O)N(C)[C@@H](CC1CC1)C(=O)N(CCC1CCCCC1)CC(=O)N[C@H](Cc1ccccc1)CO2` (mixture of isomers) [Example 274, (3R,9S,13RS)-N-(2-(benzo[d][1,3]dioxol-5-yl)ethyl)-3-benzyl-7-(2-cyclohexylethyl)-9-(cyclopropylmethyl)-16-methoxy-10-methyl-5,8,11,15-tetraoxo-2,3,4,5,6,7,8,9,10,11,12,13,14,15-tetradecahydrobenzo[p][1]oxa[4,7,10,14]tetraazacycloheptadecine-13-carboxamide], the EC50 turned out to be 288 nM.

Take `CN1C(=O)C[C@@H](C(=O)NCCc2ccc3c(c2)OCO3)NC(=O)c2c(ccc3ccccc23)OC[C@@H](Cc2ccccc2)NC(=O)CN(C[C@@H]2CCCCO2)C(=O)[C@@H]1CC1CCCC1` (mixture of isomers) [Example 284, (3RS,7S,13R)-N-(2-(benzo[d][1,3]dioxol-5-yl)ethyl)-13-benzyl-7-(cyclopentylmethyl)-6-methyl-1,5,8,11-tetraoxo-9-(((S)-tetrahydro-2H-pyran-2-yl)methyl)-1,2,3,4,5,6,7,8,9,10,11,12,13,14-tetradecahydronaphtho[1,2-p][1]oxa[4,7,10,14]tetraazacycloheptadecine-3-carboxamide]: the EC50 stood at 337 nM.

For `CN1C(=O)C[C@@H](C(=O)NCCc2ccc3c(c2)OCO3)NC(=O)c2c(ccc3ccccc23)OC[C@@H](Cc2ccccc2)NC(=O)CN(C[C@@H]2CCCCO2)C(=O)[C@@H]1CC1CCCCC1` (mixture of isomers) [Example 285, (3RS,7S,13R)-N-(2-(benzo[d][1,3]dioxol-5-yl)ethyl)-13-benzyl-7-(cyclohexylmethyl)-6-methyl-1,5,8,11-tetraoxo-9-(((S)-tetrahydro-2H-pyran-2-yl)methyl)-1,2,3,4,5,6,7,8,9,10,11,12,13,14-tetradecahydronaphtho[1,2-p][1]oxa[4,7,10,14]tetraazacycloheptadecine-3-carboxamide], the EC50 was 239 nM.

On to `CN1C(=O)C[C@@H](C(=O)NCCc2ccc3c(c2)OCO3)NC(=O)c2c(ccc3ccccc23)OC[C@@H](Cc2ccccc2)NC(=O)CN(C[C@H]2CCCCO2)C(=O)[C@@H]1CC1CCCC1` (mixture of isomers) [Example 286, (3RS,7S,13R)-N-(2-(benzo[d][1,3]dioxol-5-yl)ethyl)-13-benzyl-7-(cyclopentylmethyl)-6-methyl-1,5,8,11-tetraoxo-9-(((R)-tetrahydro-2H-pyran-2-yl)methyl)-1,2,3,4,5,6,7,8,9,10,11,12,13,14-tetradecahydronaphtho[1,2-p][1]oxa[4,7,10,14]tetraazacycloheptadecine-3-carboxamide], for which the EC50 was found to be 177 nM.

The same assay, now with this note: U2OS, in relation to the Emax of the corrector lumacaftor (=100%); U2OS cell line, 16h compound incubation; arithmetic mean values.
For orientation: Emax means the greatest response seen or fitted, relative to the assay's reference. In the case of `COc1cc2c(cc1OC)C(=O)N[C@H](C(=O)NCCc1ccc3c(c1)OCO3)CC(=O)N(C)[C@@H](CC(C)C)C(=O)N(CCC(C)(C)OC)CC(=O)N[C@H](Cc1ccccc1)CO2` (mixture of isomers) [Example 156, (3R,9S,13RS)-N-(2-(benzo[d][1,3]dioxol-5-yl)ethyl)-3-benzyl-9-isobutyl-17,18-dimethoxy-7-(3-methoxy-3-methylbutyl)-10-methyl-5,8,11,15-tetraoxo-2,3,4,5,6,7,8,9,10,11,12,13,14,15-tetradecahydrobenzo[p][1]oxa[4,7,10,14]tetraazacycloheptadecine-13-carboxamide], the Emax came out at 123%.

Consider `COc1cccc2c1C(=O)N[C@H](C(=O)NCCc1ccc3c(c1)OCO3)CC(=O)N(C)[C@@H](CC1CC1)C(=O)N(CCC1CCCCC1)CC(=O)N[C@H](Cc1ccccc1)CO2` (mixture of isomers) [Example 274, (3R,9S,13RS)-N-(2-(benzo[d][1,3]dioxol-5-yl)ethyl)-3-benzyl-7-(2-cyclohexylethyl)-9-(cyclopropylmethyl)-16-methoxy-10-methyl-5,8,11,15-tetraoxo-2,3,4,5,6,7,8,9,10,11,12,13,14,15-tetradecahydrobenzo[p][1]oxa[4,7,10,14]tetraazacycloheptadecine-13-carboxamide], for which the Emax was 186%.
